This note sets out measurements from patent publication EP0339504A2, “Human immunodeficiency virus (HIV) env-coded peptide capable of eliciting HIV-inhibiting antibodies in mammals” (priority 1988, dated 1989).

Assay [1] deals with CEM cells chronically infected with HIV-1 IIIB. In words: Cell fusion assay with anti-peptide sera (giant cell count). Format: cell-based. Conditions: 1:10 serum dilution, control sera 50,65.
Protocol: Briefly, 5000 CEM cells chronically infected with HIV-1 IIIB or HIV-1 RF were mixed with 75,000 Molt 4 cells in a volume of 100 µl in a 96 well half-area plate. Final dilution of sera in the assay was 1 to 20. Twenty-four hours later giant cells were visually enumerated at a 40x magnification.
The test system of a further assay is guinea pigs. The experiment in a line: Immunization of guinea pigs with peptide-carrier protein conjugate; anti-peptide antibodies by ELISA. The class given is in vivo, guinea pig. Here is the method:
Peptides were conjugated to either ovalbumin or keyhole limpet hemocyanin prior to immunization. For ELISA studies, human serum albumin (HSA) was used as the carrier protein. Carrier protein (2 mg/ml) was activated with 0.5% glutaraldehyde for 30 to 60 min at room temperature, then an equal volume of the peptide solution (2 mg/ml in dimethylsulfoxide) was added. The reaction took place overnight at 4°C, following which the reaction mixture was dialyzed overnight against deionized water or 0.1 M glycine, pH 7.0 in the case of human serum albumin.
Guinea pigs and rabbits were immunized following standard immunization protocols. Guinea pigs and rabbits were immunized initially with 100 to 200 µg of the peptide-carrier protein conjugate in complete Freund's adjuvant, and boosted using half the amount of peptide-carrier protein conjugate in incomplete Freund's adjuvant every two weeks thereafter. Serum samples were obtained at every other boost.
All of the peptides listed in Table 1 were conjugated to a carrier protein (either keyhole limpet hemocyanin or ovalbumin) and each peptide-carrier protein conjugate was used to immunize two guinea pigs. Guinea pigs were selected as a convenient test animal system. The resultant guinea pig antiserum samples were monitored for anti-peptide reactivity using ELISA procedures. […] A time point of six months was selected for testing the antiviral (i.e, HIV neutralizing and cell fusion-blocking) characteristics of the guinea pig antisera.
Although different levels of antibodies were produced, there was no case where only one animal from the pair produced antibodies.

For assay [2], the system named is antibodies from human HIV-1 seropositive serum samples. In words: ELISA detection of binding of human antibodies to immobilized synthetic peptides. The note with it: wells blocked with diluent 1 hour before use.
Protocol: Synthetic peptides were immobilized directly on Immulon®-II microtiter plates using glutaraldehyde. The plates were activated with 2% glutaraldehyde for 2 hrs at room temperature or 0.1% glutaraldehyde for 30 min and rinsed with deionized water. Two conditions of glutaraldehyde treatment were used routinely; the 2% glutaraldehyde was used to ensure adequate binding of the peptide to the plate and the 0.1% glutaraldehyde to avoid alteration of the binding sites. Peptide solutions of 100 µl containing 10 µg/ml in 60 mM bicarbonate buffer, pH 9.6, were added per well and incubated overnight at 4°C. The plates were washed and blocked with PBST (phosphate buffered saline + 0.05% Tween® 10) for 1 hr at 37°C and stored dry at 4°C.
This procedure was used to assure immobilization of the peptide to the microtiter plate. The peptide-HSA conjugate was immobilized on the microtiter plate well using the procedure above, except that glutaraldehyde was not included in the reaction.
Immediately before use, where indicated, the plates were blocked again with 100 µl of diluent (PBST + 5% bovine serum albumin + 20% heat inactivated normal goat serum + 0.1% sodium azide + 0.05% thimerosal) for 30 to 60 min at 37°C. […] The optical density or absorbance of the reaction was determined using a microtiter plate reader. […]
The subject of a further assay is HIV-1 IIIB. The experiment in a line: HIV neutralization assay with anti-peptide sera (p24 antigen in Molt 4 culture supernatant). The class given is cell-based. The note with it: Molt 4 cells, day six.

For the substance “peptide 1-80: aa number 418 to 432 of HIV-1 IIIB env-coded protein (CRIKQIINMWQKVGK; Surface protein gp120; UniProt P04578 418-432, looked up, fragment)”, the “FUSION ASSAY (number of giant cells formed)” value in assay [1] (guinea pig antiserum, 6 month bleed, two counts per cell separated by a comma (no decimal)) was 63,66; in assay [1] (rows marked + : guinea pig antiserum, 2-5 month bleed, two counts separated by a comma), 54,53. Besides, the “LIMITING DILUTION” value in the assay on guinea pigs (anti-peptide ELISA of guinea pig antiserum, 6 month bleed, dilution at which an absorbance of 0.1 would be obtained, one row per animal) is 30; in the assay with guinea pigs (rows marked + : guinea pig antiserum, 2-5 month bleed, dilution giving absorbance 0.1), less than 20. Besides, the “level of anti-peptide antibodies elicited (in words)” value in the assay on guinea pigs (by 6 months following the first immunization) is on record as “elicited very low levels of anti-peptide antibodies”. Further, the “HIV SEROPOSITIVE SERA Number of Peptide ELISA Positive Sera of 37 Tested” value in assay [2] (positive = ELISA absorbance greater than 0.2) is on record as 14. The “HIV SEROPOSITIVE SERA Positive Sera Average Absorbance ± SD” value in assay [2] (positive = absorbance greater than 0.2) is given as 0.34 ± 0.24. Moreover, the “NEUTRALIZATION ACTIVITY (quantity of p24 present in the supernatant)” value in the assay on HIV-1 IIIB (guinea pig antiserum, 6 month bleed) was 800 ng/mL; in the assay on HIV-1 IIIB (rows marked + : guinea pig antiserum, 2-5 month bleed), greater than 800 ng/mL.
